One assay concerns the target CtCel6A (Chaetomium thermophilum, UniProt G0SD43). The assay can be described thus: Inhibition of hydrolysis of 14C-BMCC by CtCel6A. It is filed as biochemical. Conditions: cellobiose; hydrolysis of 14C-BMCC by CtCel6A at 50°C. The source says:
Here, we characterized the cellobiose and glucose inhibition of TrCel6A and its thermophilic counterpart, CtCel6A [9, 63]. First, the cellobiose inhibition of the synergistic hydrolysis of ^14C-BC by TrCel6A and TrCel5A was studied (Figure 7A). As TrCel6A was less sensitive to cellobiose inhibition than TrCel7A, the contribution of the cellobiose released during hydrolysis was not significant, and an average (DCB/DCB=0) over all time points was used in plotting (DCB/DCB=0) versus [cellobiose] (Figure 7D). No significant systematic variation of DCB/DCB=0 depending on hydrolysis time was observed. As in the case of GH7 CBHs, the IC50 value was found using Equations 5 and 6. Because the IC50 value for synergistic hydrolysis (Table 3) was of the same order as the apparent Ki value reported for TrCel5A [31], we further tested the inhibition of individual TrCel6A. BC is not a good substrate for TrCel6A, but its acid-treated derivative, BMCC, is readily degraded by the enzyme. Therefore, we prepared ^14C-BMCC by the heterogeneous acid hydrolysis of ^14C-BC. […]
GH6 CBHs were assessed by observing the hydrolysis of ^14C-BMCC. ^14C-BMCC (0.25 g l^-1) was incubated (with shaking at 350 rpm) with CBH (0.25 μM) and N188BG (0.06 μM) in 50 mM sodium acetate buffer, pH 5.0, containing BSA (0.1 g l^-1). […]

The next assay deals with T1, TrCel7B (Trichoderma reesei, UniProt P07981).
T1 construct: TrCel7B, TrCel5A, and TrCel12A were purified from the culture filtrate of Tr QM 9414; made in house; host or cells: Trichoderma reesei QM 9414 culture filtrate (native producer)
Also noted: method as in PMID 15129433. Particulars: 3H-reduced amorphous cellulose substrate, read-out: apparent Ki value; cited from earlier work.

The target of another assay is T2, TrCel7A (Trichoderma reesei, UniProt P62694).
T2 construct: TrCel7A was purified from the culture filtrate of Tr QM 9414 as described previously; made in house; host or cells: Trichoderma reesei QM 9414 culture filtrate (native producer)
The assay can be described thus: Inhibition of synergistic hydrolysis of 14C-BC by TrCel7A (supplemented with EG TrCel5A). The class given is biochemical. Conditions: IC50 for cellobiose, 14C-BC substrate, average over time points. As for the experimental part: To study the cellobiose inhibition of GH7 CBHs, the synergistic hydrolysis of ^14C-BC in the presence of added cellobiose was followed (Figure 3, Additional file 1: Figures S1 and S2). Because the cellobiose inhibition of the EG TrCel5A is much weaker than that of GH7 CBHs, the inhibition of synergistic hydrolysis apparently reflects the inhibition of CBH. The strength of cellobiose inhibition was analyzed using plots of (DCB/DCB=0) versus [cellobiose], where DCB and DCB=0 represent the degree of conversion of ^14C-BC in the presence and absence of cellobiose, respectively (Figure 4, Additional file 1: Figure S3). […]
where [CB] is the concentration of cellobiose; [^14CBC] is the concentration of ^14C-BC used in the experiment; and C1, C2 and H are empirical constants. Equation 5 differs from Equation 1 by the presence of constant H. H was included to improve the fit and is a constant that accounts for the background radioactivity (the degree of conversion that is independent of CBH). The degree of conversion resulting from the activity of the EG was measured in a separate experiment (Additional file 1: Figure S4) and was subtracted from the degree of conversion resulting from the synergistic hydrolysis. […] Provided with the values of C1, C2 and H, the value of IC50 was calculated as follows: […]

T2 sequence (P62694 18-513): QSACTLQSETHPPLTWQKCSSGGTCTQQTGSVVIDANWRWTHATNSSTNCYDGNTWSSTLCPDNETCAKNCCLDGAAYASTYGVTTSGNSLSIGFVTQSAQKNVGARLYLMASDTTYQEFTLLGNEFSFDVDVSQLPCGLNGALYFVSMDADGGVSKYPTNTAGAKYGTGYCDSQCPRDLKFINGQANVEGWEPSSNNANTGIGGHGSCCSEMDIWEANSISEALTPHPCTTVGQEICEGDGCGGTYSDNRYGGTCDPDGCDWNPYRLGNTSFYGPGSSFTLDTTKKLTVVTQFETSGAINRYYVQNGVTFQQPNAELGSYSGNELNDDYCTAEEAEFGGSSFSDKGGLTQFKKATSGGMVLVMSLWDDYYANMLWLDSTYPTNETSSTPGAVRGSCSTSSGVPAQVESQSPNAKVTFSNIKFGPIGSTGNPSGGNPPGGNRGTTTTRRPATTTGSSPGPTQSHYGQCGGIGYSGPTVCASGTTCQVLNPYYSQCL
Sequence of CtCel6A (G0SD43 entry or part of it): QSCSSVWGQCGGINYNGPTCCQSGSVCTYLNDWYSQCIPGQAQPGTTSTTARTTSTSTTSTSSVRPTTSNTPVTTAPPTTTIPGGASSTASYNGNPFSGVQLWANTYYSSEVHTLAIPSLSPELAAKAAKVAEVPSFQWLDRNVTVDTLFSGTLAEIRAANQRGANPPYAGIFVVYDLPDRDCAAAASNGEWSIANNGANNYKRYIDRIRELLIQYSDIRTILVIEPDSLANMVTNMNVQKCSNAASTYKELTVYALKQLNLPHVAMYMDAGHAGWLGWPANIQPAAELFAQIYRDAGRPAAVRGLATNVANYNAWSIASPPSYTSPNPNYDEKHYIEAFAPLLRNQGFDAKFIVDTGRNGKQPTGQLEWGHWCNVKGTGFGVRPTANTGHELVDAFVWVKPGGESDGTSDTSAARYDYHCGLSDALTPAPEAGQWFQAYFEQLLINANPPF
T1 sequence (P07981 23-459): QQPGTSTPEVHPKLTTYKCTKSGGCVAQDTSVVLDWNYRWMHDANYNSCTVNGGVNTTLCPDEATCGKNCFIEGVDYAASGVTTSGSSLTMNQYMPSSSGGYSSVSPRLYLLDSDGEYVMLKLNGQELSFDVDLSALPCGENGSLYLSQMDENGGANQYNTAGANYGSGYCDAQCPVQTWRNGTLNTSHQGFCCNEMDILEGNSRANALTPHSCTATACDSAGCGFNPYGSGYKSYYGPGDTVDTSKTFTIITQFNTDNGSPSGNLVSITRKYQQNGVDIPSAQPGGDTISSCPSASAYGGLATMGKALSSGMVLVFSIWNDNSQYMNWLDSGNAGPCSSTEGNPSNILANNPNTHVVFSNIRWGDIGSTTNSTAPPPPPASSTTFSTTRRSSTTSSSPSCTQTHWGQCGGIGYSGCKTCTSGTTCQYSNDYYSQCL

As a reminder, the IC50 is the concentration that gives 50% inhibition. Take `O=C[C@H](O)[C@@H](O)[C@H](O[C@@H]1O[C@H](CO)[C@@H](O)[C@H](O)[C@H]1O)[C@H](O)CO` [cellobiose, Cellobiose]: the IC50 on CtCel6A worked out at 28 ± 4.5 mM; at TrCel7A (35°C, IC50 increased with hydrolysis time) it was 0.68 ± 0.24 mM; at TrCel7A (50°C), 2.61 ± 0.1 mM. Also, at TrCel7B, the Ki was 11 ± 3 mM.

The record behind these values is publication PMC3726336, “Product inhibition of cellulases studied with ^14C-labeled cellulose substrates” (Biotechnology for Biofuels, 2013).
